Results as given in patent US12559529B2, “NPY2 receptor agonists” (Boehringer Ingelheim International GmbH, priority 2019, dated 2026).
pKi: −log10 of the molar value.

The compounds below were run against T1, Human Neuropeptide Y2 Receptor (Homo sapiens, UniProt P49146) (assay: Radioligand binding competition assay (RLB)). Conditions: Table 3; human 125I-PYY (1-36) 0.02 nM, Y2 receptor membranes; read-out: Ki.
T1 construct: purchased CHEMICON HTS066M
T1 sequence (P49146 1-381): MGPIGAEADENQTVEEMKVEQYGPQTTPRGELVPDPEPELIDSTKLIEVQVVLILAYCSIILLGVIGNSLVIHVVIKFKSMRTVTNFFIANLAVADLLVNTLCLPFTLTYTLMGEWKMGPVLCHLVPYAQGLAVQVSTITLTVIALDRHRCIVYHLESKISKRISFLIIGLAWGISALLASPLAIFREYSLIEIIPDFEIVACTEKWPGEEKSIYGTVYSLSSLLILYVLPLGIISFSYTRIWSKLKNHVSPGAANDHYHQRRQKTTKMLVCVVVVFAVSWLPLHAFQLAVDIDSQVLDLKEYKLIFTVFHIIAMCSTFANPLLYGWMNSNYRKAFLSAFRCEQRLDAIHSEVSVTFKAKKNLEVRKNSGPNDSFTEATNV
Summary of the method: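 Membranes from cells expressing human Y2 receptor (0.5 μg protein/well) were incubated with radioligand and serially diluted peptides in 50 mM HEPES, 5 mM MgCl2, 1 mM CaCl2, 0.2% ovalbumin, pH 7.4, for 2 h at room temperature with shaking. Bound radioactivity was collected by filtration and counted; IC50 from sigmoidal nonlinear regression.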

pKi | SMILES
8.69 | CC(C)CC(=O)N[C@@H](C)C(=O)N1CCC[C@H]1C(=O)N[C@@H](CCC(=O)O)C(=O)N[C@@H](CCCCNC(=O)COCCOCCNC(=O)COCCOCCNC(=O)CC[C@H](NC(=O)CCCCCCCCCCCCCCCCC(=O)O)C(=O)O)C(=O)N1CCC[C@H]1C(=O)N[C@@H](CCC(=O)O)C(=O)N[C@@H](CCC(=O)O)C(=O)N[C@@H](C)C(=O)N[C@@H](C)C(=O)N[C@@H](CO)C(=O)N1CCC[C@H]1C(=O)N[C@@H](CCC(=O)O)C(=O)N[C@@H](CCC(=O)O)C(=O)N[C@@H](CC(C)C)C(=O)N[C@@H](CCC(N)=O)C(=O)N[C@@H](CCCNC(=N)N)C(=O)N[C@@H](Cc1ccc(O)cc1)C(=O)N[C@@H](Cc1ccc(O)cc1)C(=O)N[C@H](C(=O)N[C@H](C(=O)N[C@@H](CC(C)C)C(=O)N[C@@H](CCCNC(=N)N)C(=O)N[C@@H](Cc1c[nH]cn1)C(=O)N[C@@H](Cc1ccc(O)cc1)C(=O)N[C@@H](Cc1ccc(O)cc1)C(=O)N[C@@H](CC(N)=O)C(=O)N[C@@H](Cc1c[nH]c2ccccc12)C(=O)N[C@@H](CC(C)C)C(=O)N[C@H](C(=O)N[C@@H](CCCNC(=N)N)C(=O)N[C@@H](CCC(N)=O)C(=O)N[C@@H](CCCNC(=N)N)C(=O)N[C@@H](Cc1ccc(O)cc1)C(N)=O)[C@@H](C)O)[C@@H](C)O)C(C)C [Compound 184, N{alpha-4}-(3-methylbutanoyl)-N{epsilon-7}-[2-(2-{2-[2-(2-{2-[(4S)-4-carboxy-4-(17-carboxyheptadecanamido)butanamido]ethoxy}ethoxy)acetamido]ethoxy}ethoxy)acetamido]-[4A,7K,9E,11A,18Q,22V,23T,28Y,30W,31L]hPYY (4-36)]
8.56 | CC(C)CC(=O)N[C@@H](C)C(=O)N1CCC[C@H]1C(=O)N[C@@H](CCC(=O)O)C(=O)N[C@@H](CCCCNC(=O)COCCOCCNC(=O)COCCOCCNC(=O)CC[C@H](NC(=O)CCCCCCCCCCCCCCCCC(=O)O)C(=O)O)C(=O)N1CCC[C@H]1C(=O)N[C@@H](CCC(=O)O)C(=O)N[C@@H](CCC(=O)O)C(=O)N[C@@H](CC(=O)O)C(=O)N[C@@H](C)C(=O)N[C@@H](CO)C(=O)N1CCC[C@H]1C(=O)N[C@@H](CCC(=O)O)C(=O)N[C@@H](CCC(=O)O)C(=O)N[C@@H](CC(C)C)C(=O)N[C@@H](CCC(N)=O)C(=O)N[C@@H](CCCNC(=N)N)C(=O)N[C@@H](Cc1ccc(O)cc1)C(=O)N[C@@H](Cc1ccc(O)cc1)C(=O)N[C@H](C(=O)N[C@@H](CO)C(=O)N[C@@H](CC(C)C)C(=O)N[C@@H](CCCNC(=N)N)C(=O)N[C@@H](Cc1c[nH]cn1)C(=O)N[C@@H](CCC(N)=O)C(=O)N[C@@H](Cc1ccc(O)cc1)C(=O)N[C@@H](CC(N)=O)C(=O)N[C@@H](Cc1c[nH]c2ccccc12)C(=O)N[C@@H](CC(C)C)C(=O)N[C@H](C(=O)N[C@@H](CCCNC(=N)N)C(=O)N[C@@H](CCC(N)=O)C(=O)N[C@@H](CCCNC(=N)N)C(=O)N[C@@H](Cc1ccc(O)cc1)C(N)=O)[C@@H](C)O)C(C)C [Compound 187, N{alpha-4}-(3-methylbutanoyl)-N{epsilon-7}-[2-(2-{2-[2-(2-{2-[(4S)-4-carboxy-4-(17-carboxyheptadecanamido)butanamido]ethoxy}ethoxy)acetamido]ethoxy}ethoxy)acetamido]-[4A,7K,9E,18Q,22V,27Q,28Y,30W,31L]hPYY (4-36)]
8.68 | CC(C)CC(=O)N[C@@H](C)C(=O)N1CCC[C@H]1C(=O)N[C@@H](CCC(=O)O)C(=O)N[C@@H](CCCCNC(=O)COCCOCCNC(=O)COCCOCCNC(=O)CC[C@H](NC(=O)CCCCCCCCCCCCCCCCC(=O)O)C(=O)O)C(=O)N1CCC[C@H]1C(=O)N[C@@H](CCC(=O)O)C(=O)N[C@@H](CCC(=O)O)C(=O)N[C@@H](CC(=O)O)C(=O)N[C@@H](C)C(=O)N[C@@H](CO)C(=O)N[C@@H](CCC(=O)O)C(=O)N[C@@H](C)C(=O)N[C@@H](CCC(=O)O)C(=O)N[C@@H](CC(C)C)C(=O)N[C@@H](CCC(N)=O)C(=O)N[C@@H](CCCNC(=N)N)C(=O)N[C@@H](Cc1ccc(O)cc1)C(=O)N[C@@H](Cc1ccc(O)cc1)C(=O)N[C@H](C(=O)N[C@@H](CO)C(=O)N[C@@H](CC(C)C)C(=O)N[C@@H](CCCNC(=N)N)C(=O)N[C@@H](Cc1c[nH]cn1)C(=O)N[C@@H](Cc1ccc(O)cc1)C(=O)N[C@@H](Cc1ccc(O)cc1)C(=O)N[C@@H](CC(N)=O)C(=O)N[C@@H](Cc1c[nH]c2ccccc12)C(=O)N[C@@H](CC(C)C)C(=O)N[C@H](C(=O)N[C@@H](CCCNC(=N)N)C(=O)N[C@@H](CCC(N)=O)C(=O)N[C@@H](CCCNC(=N)N)C(=O)N[C@@H](Cc1ccc(O)cc1)C(N)=O)[C@@H](C)O)C(C)C [Compound 189, N{alpha-4}-(3-methylbutanoyl)-N{epsilon-7}-[2-(2-{2-[2-(2-{2-[(4S)-4-carboxy-4-(17-carboxyheptadecanamido)butanamido]ethoxy}ethoxy)acetamido]ethoxy}ethoxy)acetamido]-[4A,7K,9E,14E,15A,18Q,22V,28Y,30W,31L]hPYY (4-36)]
8.77 | CC[C@H](C)[C@H](NC(=O)[C@H](Cc1ccc(O)cc1)NC(=O)[C@H](Cc1ccc(O)cc1)NC(=O)[C@H](CCCNC(=N)N)NC(=O)[C@H](CCC(N)=O)NC(=O)[C@H](CC(C)C)NC(=O)[C@H](CCC(=O)O)NC(=O)[C@H](CCC(=O)O)NC(=O)[C@@H]1CCCN1C(=O)[C@H](CO)NC(=O)[C@H](C)NC(=O)[C@H](CC(=O)O)NC(=O)[C@H](CCC(=O)O)NC(=O)[C@H](CCC(=O)O)NC(=O)[C@@H]1CCCN1C(=O)[C@H](CCCCNC(=O)COCCOCCNC(=O)COCCOCCNC(=O)CC[C@H](NC(=O)CCCCCCCCCCCCCCCCC(=O)O)C(=O)O)NC(=O)[C@H](CCC(=O)O)NC(=O)[C@@H]1CCCN1C(=O)[C@H](C)NC(=O)CC(C)C)C(=O)N[C@@H](CO)C(=O)N[C@@H](CC(C)C)C(=O)N[C@@H](CCCNC(=N)N)C(=O)N[C@@H](Cc1c[nH]cn1)C(=O)N[C@@H](Cc1ccc(O)cc1)C(=O)N[C@@H](Cc1ccc(O)cc1)C(=O)N[C@@H](CC(N)=O)C(=O)N[C@@H](Cc1c[nH]c2ccccc12)C(=O)N[C@@H](CC(C)C)C(=O)N[C@H](C(=O)N[C@@H](CCCNC(=N)N)C(=O)N[C@@H](CCC(N)=O)C(=O)N[C@@H](CCCNC(=N)N)C(=O)N[C@@H](Cc1ccc(O)cc1)C(N)=O)[C@@H](C)O [Compound 191, N{alpha-4}-(3-methylbutanoyl)-N{epsilon-7}-[2-(2-{2-[2-(2-{2-[(4S)-4-carboxy-4-(17-carboxyheptadecanamido)butanamido]ethoxy}ethoxy)acetamido]ethoxy}ethoxy)acetamido]-[4A,7K,9E,18Q,22I,28Y,30W,31L]hPYY (4-36)]
